The conditions of series [1]: IV administration, lung tissue; cited from earlier work. The method, then:
Morphologically Aspergillus grows and propagates within the lung cavity. […] This may explain low human efficacy (40%) of caspofungin in treating IPA. Drug concentr ... || Caspofungin for injection (tradename: […]®) is sold by Merck & Co., Inc. The approved […]® dose is a 70 mg loading dose and then 50 mg/daily. Previous intravenous (IV) studies with caspofungin in animals have shown that IV administered drug only delivers about 5% of the drug level in blood to the lungs. […] Most of the IV drugs is distributed to other sensitive target organs, such as the liver and kidneys, which if given in higher doses, can lead ...

Series [2] deals with Aspergillus fumigatus ATCC204305. Nature of the series: Broth microdilution MEC. The note with it: CLSI broth microdilution, microscopy, duplicate. It counts as cell-based. Here is the method:
(§1) Antifungal potency of the test article(s) was measured using the in vitro broth microdilution assay under test conditions described by the Clinical and Laboratory Standards Institute. Minimum Inhibitory Concentration (MIC) is defined as the lowest concentration of an agent that causes a specified reduction in visible growth of the microorganism. Minimum Effective Concentration (MEC) is defined as the lowest concentration of an agent that leads to the growth of small, rounded, compact hyphal forms, as compared to the hyphal growth typically seen in the growth control well. MIC values were determined for 9 Candida spp., and MEC values were determined for filamentous fungus species (Aspergillus fumigatus and Trichophyton rubrum). Details of the test article preparations and methodologies are described in Supplementary Material S1.
(§2) Following incubation, the test plates were visually examined and wells were scored for growth or complete growth inhibition to define the MIC values. Microscopy examination was used to determine the MEC values. Each test substance was evaluated in duplicate and the results are the duplicate test values. Vehicle-control and an active reference agent were used as blank and positive controls, respectively. […]
(§3) S1. In Vitro Testing, Test Article Preparations
(§4) The 5 mg/mL stock solution was prepared as the following. The refrigerated vial was equilibrated to room temperature. Test vial was reconstituted aseptically with 10.5 mL 0.9% NaCl. The powder was dissolved completely, mixing until a clear solution was ob-tained. The final concentration was 5.0 mg/mL of caspofungin freebase. The reconstituted solution was stable for 1 hr at room temperature. The 5 mg/mL stock solution was then […]
(§5) The refrigerated vial was equilibrated to room temperature. The powder was dis-solved completely, mixing until a clear solution was obtained. Test vial was reconstituted aseptically with 1.8 mL 0.9% NaCl. The white to off-white powder was dissolved com-pletely, mixing gently until a clear solution was obtained. The final concentration was 5.0 mg/mL of caspofungin freebase. The reconstituted solution was used within 1 hr at room temperature. The 5 mg/mL stock solution was then diluted with 0.9% NaCl to prepare the […]
(§6) 1.3. Caspofungin Diacetate
(§7) The 5 mg/mL API stock solution was prepared as the following. The refrigerated vial was equilibrated to room temperature. Test vial was filled aseptically with 1.8 mL 0.9%
(§8) NaCl. The powder was dissolved completely, mixing until a clear solution was obtained.
(§9) The final concentration was 5.0 mg/mL of caspofungin freebase. The reconstituted solu-tion was used within 1 hr at room temperature. The 5 mg/mL stock solution was then […]
(§10) g compound, corresponding to 1.2 mg active compound with a correction factor of 2.40 was added 0.375 mL of water for injection to generate the 3.2 mg/mL working stock solution for testing. The 3.2 mg/mL working stock solution was 2-fold diluted seri-ally in 0.9% NaCl to prepare a total of eleven 50-fold stock solutions, concentrations rang-ing from 3.2 to 0.003 mg/mL. A 4 μL aliquot of each dilution was added to 196 μL of broth medium seeded with the organism suspension in wells of a 96 well plate (fungal cell count: 1 x 10^3 to 1 x 10^4 colony forming units per mL). The final volume was 200 μL in each […]
In general terms: Dilution methods test growth across graded concentrations, often in twofold steps.

Series [3] concerns Aspergillus fumigatus ATCC 13073. In words: Broth microdilution MEC. It counts as cell-based. The note with it: CLSI broth microdilution, microscopy, duplicate. The method, then: as §1, §2, §3, §4, §5, §6, §7, §8, §9, §10
Series [4] relates to Trichophyton rubrum ATCC 10218. Nature of the series: Broth microdilution MEC. It counts as cell-based. The conditions noted are these: CLSI broth microdilution, microscopy, duplicate. Here is the method:
as §1, §2, §3, §4, §5, §6, §7, §8, §9, §10

A short description of series [5]: Aerosol characterization (PARI LC Star nebulizer, QCM cascade impactor). The class given is physicochemical. The note with it: 10 mg/mL caspofungin diacetate, determined once. The method, then: Aerosol particle size distribution was determined once with a quartz crystal microbalance (QCM) cascade impactor (California Measurements Inc., Sierra Madre, CA, USA) equipped with 10 stages to collect size-segregated samples. The mass median aerodynamic diameter (MMAD) and geometric standard deviation (GSD) were calculated from the mass accumulated on each collection stage of the QCM. Each formulation was tested by aerosolizing it with a PARI LC Star nebulizer (PARI Respiratory Equipment, Inc., Midlothian, VA, USA) connected to compressed air at 28 psi. The air flow to the nebulizer was about 6.2 L/min. Approximately 7 mL of the test formulation solution was placed in the nebulizer, weighed and connected to the air supply for aerosolization. The nebulizer was operated for 12 min, and post weighed. The generated aerosol was delivered into a plenum with a narrow opening. A stream of test aerosol was sampled from the plenum for particle size determination. A Quartz Crystal Microbalance based cascade impactor (TSI Inc., Shoreview, MN, USA) was used for these determinations. Details of the formulation preparations are described in Supplementary Material S3.
S3. Aerosol Characterization
(PVP K30, 100 mg/mL) were prepared. […]
osols for the purpose of comparing particle size.
S3.1. Preparation of Caspofungin Diacetate Stock Solution: […]
and recorded once during the exposure. […]

In the case of `CC[C@H](C)C[C@H](C)CCCCCCCCC(=O)N[C@H]1C[C@@H](O)[C@@H](NCCN)NC(=O)[C@@H]2[C@@H](O)CCN2C(=O)[C@H]([C@H](O)CCN)NC(=O)[C@H]([C@H](O)[C@@H](O)c2ccc(O)cc2)NC(=O)[C@@H]2C[C@@H](O)CN2C(=O)[C@H]([C@@H](C)O)NC1=O` [Caspofungin Diacetate], the “percentage of IV delivered drug detected in lung” value in series [1] is on record as “about 5%”. Also, the figures for the MEC in series [2], in series [3] and in series [4] were 0.125 µg/mL, 0.0625 µg/mL and 0.125 µg/mL, respectively. Also, the “MMAD (Mass Median Aerodynamic Diameter)” value in series [5] came out at 1.15 microns.

The values are drawn from publication PMC8067632, “Assessment and Development of the Antifungal Agent Caspofungin for Aerosolized Pulmonary Delivery” (Pharmaceutics, 2021).
